According to paper PMC9355975, “Functional human cell-based vascularised cardiac tissue model for biomedical research and testing” (Scientific Reports, 2022):
pEC50, pIC50: −log10 of the molar value.

Tests used:
[1] = system: cardiac tissue model (hiPSC-derived cardiomyocytes co-cultured with vascular-like network); experiment: Multielectrode array (MEA) field potential recording: FPD, beating frequency, Na+ spike amplitude; type: cell-based, human; settings: for signs of cardio activity or toxicity: negative controls, up to 30 µM; for signs of cardio activity or toxicity / effect on FPD (in words): MEA; for effect on FPD (in words): acute cumulative exposure
Experimental: Hydrophobic compounds were solubilized in DMSO as 10 mM stocks. The water-soluble compounds were solubilized in distilled water as 1 mM stocks.
Extracellular field potentials were recorded using a Multiwell-MEA-System (Multi Channel Systems) with a 20 kHz sampling frequency on days 8–9 after cardiomyocyte seeding. The temperature was set at 37 °C and the cells were supplied with 5% CO2 during the measurements. Two-minute recordings were obtained as spontaneous baseline beating, after which the cardiac tissue models were exposed to a ½ logarithmic cumulative concentration series spanning from […] of the test compounds. With 24-well plates four replicate wells and with 96-well plates eight replicate wells were used for each compound. The wash-in period between administration of the test compounds and 2-min recording was 8 min. The field potentials were recorded with Multiwell-Screen software (Multi Channel Systems) and analysed with Multiwell-Analyzer software (Multi Channel Systems). The data from the electrodes showing clear beating patterns, sodium spike voltage change over 70 µV, and a detectable T-wave were used for the analyses. Data obtained from the electrodes of one well were averaged. In the analyses, each well was treated as an individual and (the ratio of) test compound-induced changes were calculated against the recorded baseline from the same well. The data was normalized only against the baseline values, not against the vehicle control. All the field potential durations (FPD) were corrected against the changes in beating frequency using the Fridericia formula cFPD=FPD/RR3 , where RR is the RR interval.
For each compound, we analysed the effects on FPD, beat rate and amplitude. We selected one MEA parameter based on their mechanism of action. FPD, that corresponds to the QT interval[59], was selected for compounds that are known to affect the QT time e.g., by targeting hERG or Ca^2+ channels. Beat rate was selected for compounds that target adrenergic receptors.
For the electrophysiology measurements, the chosen sample size was either 4 when using 24-well MEA plates with 12 electrodes per well and 8 when using 96-well MEA plates with 3 electrodes per well. The reported n stands for the number of wells (cardiac tissue models) per repetition of the study. Each test was repeated 3 times using 4–8 parallels in each concentration. Excel (Microsoft) was used for to calculate the p-values using Student’s two-tailed t-test. EC50 and IC50 values were calculated using non-linear fit four-parameters logistic equation Prism version 5.0. (GraphPad). The baseline values were used as Emin.

QT interval [2] = settings: cited from earlier work
QT interval [3] = settings: cited from earlier work; remark: listed apart in the source
[4] = free plasma concentration from the literature; cited from earlier work
[5] = system: hiPSC-derived cardiomyocytes; design: method as in PMID 28456566; settings: cited from earlier work
calcium channels = system: calcium channels; design: method as in PMID 17078945; settings: cited from earlier work
sodium channels = system: sodium channels; design: method as in PMID 10069689; settings: canine atrial myocytes; cited from earlier work
[6] = design: method as in PMID 6599419; settings: humans; cited from earlier work

CC(=O)Oc1ccccc1C(=O)O [Acetyl salicylic acid]
signs of cardio activity or toxicity [1]: None

COc1cc2nc(N(C)CCCNC(=O)C3CCCO3)nc(N)c2cc1OC (stereo not drawn) [Alfuzosin]
concentration that significantly prolongs the QT interval in vitro (QT interval [2]): 300 nM | increase in FPD ([1]; at 300 nM, statistically significant): 20% | QT effect in patients (QT interval [3]; at high doses (100 nM)): mild QT increase | Therapeutic concentration [4]: 56[21] nM

COc1ccc(CCN2CCC(Nc3nc4ccccc4n3Cc3ccc(F)cc3)CC2)cc1 [Astemizole]
Therapeutic concentration [4]: 8[21] nM

COc1cc(N)c(Cl)cc1C(=O)NC1CCN(CCCOc2ccc(F)cc2)CC1OC (stereo not drawn) [Cisapride]
Therapeutic concentration [4]: 2.5[29] nM

C[C@H]1O[C@@H](O[C@H]2[C@@H](O)C[C@H](O[C@H]3[C@@H](O)C[C@H](O[C@H]4CC[C@@]5(C)[C@H](CC[C@@H]6[C@@H]5C[C@@H](O)[C@]5(C)[C@@H](C7=CC(=O)OC7)CC[C@]65O)C4)O[C@@H]3C)O[C@@H]2C)C[C@H](O)[C@@H]1O [Digoxin]
Therapeutic concentration [4]: 2.8[61] nM

CN(CCOc1ccc(NS(C)(=O)=O)cc1)CCc1ccc(NS(C)(=O)=O)cc1 [Dofetilide]
Therapeutic concentration [4]: 2[60] nM

NCCc1ccc(O)c(O)c1 [Dopamine]
Therapeutic concentration [4]: 300 (20% increase) nM

COc1cccc2c1C(=O)c1c(O)c3c(c(O)c1C2=O)C[C@@](O)(C(=O)CO)C[C@@H]3O[C@H]1C[C@H](N)[C@H](O)[C@H](C)O1 [Doxorubicin]
changes to FPD, BPM or amplitude ([1]; short-term experiments, exposures up to 2 h): could not detect any | apoptosis of hiPSC-derived cardiomyocytes ([5]; after two days of exposure): increase | effect on FPD or beat rate ([5]; short exposures): not to affect

CNC[C@H](O)c1ccc(O)c(O)c1 [Epinephrine]
Therapeutic concentration [4]: 2.64[62] nM

O=C(CCCN1CCC(O)(c2ccc(Cl)cc2)CC1)c1ccc(F)cc1 [Haloperidol]
Therapeutic concentration [4]: 45[60] nM

CCCCCCc1ccc(O)cc1O [Hexylresorcinol]
signs of cardio activity or toxicity [1]: None

CC(C)Cc1ccc(C(C)C(=O)O)cc1 (stereo not drawn) [Ibuprofen]
signs of cardio activity or toxicity [1]: None

CC(C)NCC(O)c1ccc(O)c(O)c1 (stereo not drawn) [Isoprenaline]
Therapeutic concentration [4]: 0.84[63] nM

COC(=O)C1=C(C)NC(C)=C(C(=O)OC(C)C)C1c1cccc2nonc12 (stereo not drawn) [Isradipine]
Therapeutic concentration [4]: 80[61] nM

C[C@@H]1CC(=O)NN=C1c1ccc(NN=C(C#N)C#N)cc1 [Levosimendan]
Therapeutic concentration [4]: 129[21] nM

CCN(CC)CC(=O)Nc1c(C)cccc1C [Lidocaine]
Therapeutic concentration [4]: 2500[29] nM

COc1c(N2C[C@@H]3CCCN[C@@H]3C2)c(F)cc2c(=O)c(C(=O)O)cn(C3CC3)c12 [Moxifloxasin]
Therapeutic concentration [4]: 5600[60] nM

COC(=O)C1=C(C)NC(C)=C(C(=O)OC)C1c1ccccc1[N+](=O)[O-] [Nifedipine]
Therapeutic concentration [4]: 190[60] nM

N=C(N)c1ccc(OCCCCCOc2ccc(C(=N)N)cc2)cc1 [Pentamidine]
effect on FPD (in words) [1]: could not detect any significant FPD prolongation | Therapeutic concentration [4]: 190[61] nM

O=c1[nH]c2ccccc2n1C1CCN(CCCC(c2ccc(F)cc2)c2ccc(F)cc2)CC1 [Pimozide]
Therapeutic concentration [4]: 3.7[61] nM

CC(C)NCC(O)COc1cccc2ccccc12 (stereo not drawn) [Propranolol]
Therapeutic concentration [4]: 1095[64] nM

C=C[C@H]1C[N@@]2CC[C@H]1C[C@@H]2[C@@H](O)c1ccnc2ccc(OC)cc12 [Quinidine]
Therapeutic concentration [4]: 3240[60] nM

COc1ccccc1OCC(O)CN1CCN(CC(=O)Nc2c(C)cccc2C)CC1 (stereo not drawn) [Ranolazine]
Therapeutic concentration [4]: 6010[21] nM

CC(C)NCC(O)c1ccc(NS(C)(=O)=O)cc1 (stereo not drawn) [Sotalol]
Therapeutic concentration [4]: 13,000[60] nM

CC(C)(C)c1ccc(C(O)CCCN2CCC(C(O)(c3ccccc3)c3ccccc3)CC2)cc1 (stereo not drawn) [Terfenadine]
effect on FPD (in words) [1]: FPD shortening | increase in FPD before the shortening of FPD initiated ([1]; non-significant): 10% | pIC50 (calcium channels): 6.73 | pIC50 (sodium channels): 6.03 | Therapeutic concentration [4]: 300[21] nM

CC(CC(c1ccccc1)c1ccccc1)NC(C)(C)C (stereo not drawn) [Terodiline]
pEC50 ([1]; Homo sapiens, Cardiomyocyte, as rounded in the discussion, read-out: amplitude EC50 concentration): 5.59 | effect on FPD (in words) [1]: did not detect the expected FPD prolongation | Therapeutic concentration [4]: 1800[60] nM | toxic plasma concentration [6]: 2.1 µM

Cc1ccc(O)c([C@H](CCN(C(C)C)C(C)C)c2ccccc2)c1 [Tolterodine]
in vivo concentration corresponding to the QT-prolonging concentration in vitro (QT interval [2]; very high concentration in vitro): 340 nM | QT interval in clinical use (QT interval [3]): does not prolong the QT interval | Therapeutic concentration [4]: 5 nM
